# Patent US10945971B2, “Sphingosine kinase type 1 inhibitors and uses thereof” (Enzo Therapeutics, Inc., priority 2008, dated 2021)
# Assays:
# LN229 cells = experiment: Apoptosis of LN229 cells (PARP cleavage, nuclear condensation, TUNEL); assay type: cell-based, human
# Procedure: Cells were grown on 3-aminopropyl-triethoxysilane-treated 15 mm glass cover slips in 24 well plates. Following treatments, cells were washed with PBS, fixed with 3% paraformaldehyde for 10 min at room temperature, and blocked in TBST buffer containing 1% BSA. After washing, cells were incubated in the same buffer containing Alexa-conjugated phalloidin for 30 min, followed by 15 min incubation in 10 μg/ml of Hoechst 33342. For TUNEL assays, fixed cells were permeabilized with 0.5% TX-100 for 30 min, washed and incubated in TdT buffer supplemented with 250 μM CoCl2, 20 units TdT (NEB, Ipswich, Mass.) and 1 nM fluorescein-12-dUTP (Roche) for 1 h at 37° C. […]
# Cells were plated at 10,000 cells/well in 48-well plates and allowed to attach for 24 h. Cell proliferation was measured at the indicated times with WST-1 and absorbance was measured in a plate reader at 450 nm with background subtraction at 630 nm. Cell death was detected by trypan blue exclusion assays in which the percent of blue dye incorporating cells were determined using a light microscope and a hemacytometer as described (Yacoub et al. Mol Cancer Ther 7:314-329, 2008). Apoptotic cell death was measured by staining cell nuclei with the Hoechst dye bisbenzimide and apoptotic cells were identified by condensed, fragmented nuclear regions as described previously (Sankala et al. Cancer Res 67:10466-10474, 2007). […]
# [1] = Metabolism of SK1-I in cells by LC-ESI-MS/MS; assay type: in vitro ADME
# Text: Lipids were extracted and phosphorylated and unphosphorylated sphingoid bases, individual ceramide acyl chain species, as well as SK1-I and its metabolites were quantified by liquid chromatography, electrospray ionization-tandem mass spectrometry (LC-ESI-MS/MS) as described previously (Merrill et al. Methods 36:207-224, 2005).
# U373 cells = experiment: PMA-stimulated F-actin reorganization and lamellipodia formation (phalloidin staining, confocal); assay type: cell-based, human
# Procedure: Cells were grown on 3-aminopropyl-triethoxysilane-treated 15 mm glass cover slips in 24 well plates. Following treatments, cells were washed with PBS, fixed with 3% paraformaldehyde for 10 min at room temperature, and blocked in TBST buffer containing 1% BSA. After washing, cells were incubated in the same buffer containing Alexa-conjugated phalloidin for 30 min, followed by 15 min incubation in 10 μg/ml of Hoechst 33342. For TUNEL assays, fixed cells were permeabilized with 0.5% TX-100 for 30 min, washed and incubated in TdT buffer supplemented with 250 μM CoCl2, 20 units TdT (NEB, Ipswich, Mass.) and 1 nM fluorescein-12-dUTP (Roche) for 1 h at 37° C. Coverslips were washed with TBST, rinsed in water, air dried and mounted on glass slides with Cytoseal 60 polymer (Richard-Allan Scientific, Kalamazoo, Mich.). Images were collected on an LSM 510 laser confocal microscope (Zeiss, Thornwood, N.Y.) with a 100× oil immersion objective.
# Akt = Akt (Homo sapiens, UniProt P31749); conditions: Paugh et al. Blood 2008; cited from earlier work
# Sequence of Akt (P31749 whole entry): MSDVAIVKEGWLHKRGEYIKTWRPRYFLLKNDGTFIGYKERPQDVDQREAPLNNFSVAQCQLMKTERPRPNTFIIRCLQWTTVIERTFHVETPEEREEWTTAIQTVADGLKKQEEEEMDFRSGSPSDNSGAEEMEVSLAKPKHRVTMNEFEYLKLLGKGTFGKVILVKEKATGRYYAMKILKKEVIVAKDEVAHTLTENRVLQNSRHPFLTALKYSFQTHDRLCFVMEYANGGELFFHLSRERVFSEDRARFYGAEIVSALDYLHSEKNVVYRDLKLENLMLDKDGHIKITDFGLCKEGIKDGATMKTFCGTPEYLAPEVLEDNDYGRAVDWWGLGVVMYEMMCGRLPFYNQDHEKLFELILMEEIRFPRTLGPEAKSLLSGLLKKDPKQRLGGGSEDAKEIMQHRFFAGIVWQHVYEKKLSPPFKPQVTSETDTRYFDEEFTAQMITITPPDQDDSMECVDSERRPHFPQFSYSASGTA
smiles,measurement,setting,value
"CCCCCc1ccc(/C=C/[C@H](O)[C@@H](CO)NC)cc1 [SK1-I, (2R,3S,4E)-N-methyl-5-(4′-pentylphenyl)-2-aminopent-4-ene-1,3-diol]","apoptosis (PARP cleavage, fragmented and condensed nuclei, TUNEL)",LN229 cells,induced apoptosis
same,other metabolites,[1]; after 24 h,no other metabolites were detected
same,phosphorylation of the compound,[1]; in contrast to FTY720,not readily phosphorylated
same,PMA-stimulated F-actin reorganization at the leading edge and formation of lamellipodia,U373 cells,dramatically reduced
same,Akt activity in an in vitro kinase assay,Akt,did not inhibit Akt activity
